Data: the supplement of paper PMC10307832

Key:
Test in all cases: relative viability (nuclei count vs DMSO), 5 days (fraction); higher = more cells survive
[1] = compound: C/C(=N\NC(=S)N1CCC1)/C2=CC=CC=N2 + O=C(CCCCCCC(=O)Nc1ccccc1)NO [Vorinostat] (partner 1 µM)
Method in brief: (§1)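 A single step with final 0.05% Triton X-100, 1% formaldehyde and 1 ug/ml Hoechst fixed the cells and stained nuclei 5 days after treatment. Lung cancer cell lines in 1536-well plates had been treated by pin tool the day after seeding with one drug alone or a fixed anchor-drug dose plus five library-drug doses (not always all listed) in √10 steps, and nuclei were counted on 4× images. Relative viability is the ratio of nuclei in treated wells to nuclei in vehicle wells, taken as the median of duplicate plates.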

[2] = compound: C/C(=N\NC(=S)N1CCC1)/C2=CC=CC=N2 + C[C@]1(O)C[C@@H](c2nc(-c3ccc4ccc(-c5ccccc5)nc4c3)c3c(N)nccn32)C1 [Linsitinib] (partner 1 µM)
Method in brief: as §1

[3] = compound: C/C(=N\NC(=S)N1CCC1)/C2=CC=CC=N2 + CC1(C)CCC(c2ccc(Cl)cc2)=C(CN2CCN(c3ccc(C(=O)NS(=O)(=O)c4ccc(N[C@H](CCN5CCOCC5)CSc5ccccc5)c(S(=O)(=O)C(F)(F)F)c4)cc3)CC2)C1 [Navitoclax] (partner 0.5 µM)
Method in brief: as §1

[4] = compound: C/C(=N\NC(=S)N1CCC1)/C2=CC=CC=N2 + Cc1nc(NC(=O)N2CCC[C@H]2C(N)=O)sc1-c1ccnc(C(C)(C)C(F)(F)F)c1 [Alpelisib] (partner 2 µM)
Method in brief: as §1

Row | Cell Line | relative viability ([1]; first compound 0.05 µM) | relative viability ([1]; first compound 0.1581 µM) | relative viability ([1]; first compound 0.5 µM) | relative viability ([1]; first compound 1.581 µM) | relative viability ([1]; first compound 5 µM) | relative viability ([2]; first compound 0.05 µM) | relative viability ([2]; first compound 0.1581 µM) | relative viability ([2]; first compound 0.5 µM) | relative viability ([2]; first compound 1.581 µM) | relative viability ([2]; first compound 5 µM) | relative viability ([3]; first compound 0.05 µM) | relative viability ([3]; first compound 0.1581 µM) | relative viability ([3]; first compound 0.5 µM) | relative viability ([3]; first compound 1.581 µM) | relative viability ([3]; first compound 5 µM) | relative viability ([4]; first compound 0.05 µM) | relative viability ([4]; first compound 0.1581 µM) | relative viability ([4]; first compound 0.5 µM) | relative viability ([4]; first compound 1.581 µM) | relative viability ([4]; first compound 5 µM)
1 | NCI-H647 | 0.115 | 0.0948 | 0.106 | 0.0935 | 0.102 | 0.148 | 0.103 | 0.159 | 0.0971 | 0.0901 | 0.133 | 0.129 | 0.117 | 0.123 | 0.116 | 0.135 | 0.0873 | 0.114 | 0.0898 | 0.0916
2 | A-427 | 0.187 | 0.198 | 0.171 | 0.158 | 0.186 | 0.18 | 0.687 | 0.148 | 0.157 | 0.139 | 0.182 | 0.664 | 0.141 | 0.125 | 0.133 | 0.136 | 0.739 | 0.142 | 0.101 | 0.11
3 | COR-L 105 | 0.345 | 0.346 | 0.345 | 0.304 | 0.291 | 0.343 | 0.265 | 0.265 | 0.332 | 0.261 | 0.288 | 0.316 | 0.26 | 0.236 | 0.317 | 0.301 | 0.266 | 0.275 | 0.222 | 0.217
4 | NCI-H441 | 0.16 | 0.19 | 0.153 | 0.111 | 0.127 | 0.145 | 0.15 | 0.117 | 0.0833 | 0.108 | 0.374 | 0.188 | 0.205 | 0.174 | 0.15 | 0.159 | 0.173 | 0.174 | 0.166 | 0.146
5 | NCI-H2126 | 0.184 | 0.211 | 0.197 | 0.186 | 0.168 | 0.277 | 0.724 | 0.268 | 0.223 | 0.246 | 0.328 | 0.828 | 0.265 | 0.281 | 0.27 | 0.327 | 0.748 | 0.224 | 0.218 | 0.186
6 | HCC-44 | 0.894 | 1.02 | 0.51 | 0.471 | 0.411 | 0.553 | 0.141 | 0.143 | 0.154 | 0.183 | 0.782 | 0.311 | 0.194 | 0.222 | 0.258 | 0.473 | 0.143 | 0.178 | 0.162 | 0.218
7 | NCI-H460 | 0.0355 | 0.029 | 0.0302 | 0.03 | 0.0178 | 0.0136 | 0.0148 | 0.0172 | 0.0108 | 0.005 | 0.0277 | 0.0183 | 0.0198 | 0.0147 | 0.0062 | 0.0117 | 0.0186 | 0.0138 | 0.0126 | 0.0076
8 | SK-LU-1 | 0.21 | 0.244 | 0.242 | 0.219 | 0.272 | 0.274 | 0.231 | 0.224 | 0.202 | 0.21 | 0.183 | 0.167 | 0.148 | 0.124 | 0.112 | 0.209 | 0.163 | 0.19 | 0.146 | 0.196
9 | NCI-H322M | 0.337 | 0.345 | 0.358 | 0.465 | 0.438 | 0.291 | 0.876 | 0.197 | 0.245 | 0.319 | 0.268 | 1.21 | 0.208 | 0.281 | 0.277 | 0.318 | 0.844 | 0.186 | 0.258 | 0.254
10 | EKVX | 0.196 | 0.223 | 0.186 | 0.205 | 0.221 | 0.141 | 0.122 | 0.0907 | 0.135 | 0.141 | 0.127 | 0.131 | 0.119 | 0.132 | 0.137 | 0.119 | 0.124 | 0.111 | 0.13 | 0.151
11 | NCI-H1734 | 0.169 | 0.174 | 0.145 | 0.12 | 0.124 | 0.141 | 0.183 | 0.16 | 0.142 | 0.131 | 0.0989 | 0.104 | 0.0882 | 0.0843 | 0.0776 | 0.169 | 0.185 | 0.147 | 0.135 | 0.151
12 | NCI-H520 | 0.177 | 0.156 | 0.163 | 0.182 | 0.159 | 0.164 | 0.145 | 0.123 | 0.116 | 0.169 | 0.19 | 0.212 | 0.301 | 0.151 | 0.166 | 0.159 | 0.144 | 0.124 | 0.138 | 0.154
13 | EPLC-272H | 0.0931 | 0.159 | 0.149 | 0.0509 | 0.107 | 0.16 | 0.424 | 0.173 | 0.149 | 0.16 | 0.108 | 0.356 | 0.138 | 0.125 | 0.151 | 0.125 | 0.293 | 0.185 | 0.166 | 0.203
14 | UMC-11 | 0.168 | 0.14 | 0.146 | 0.134 | 0.139 | 0.369 | 0.238 | 0.205 | 0.169 | 0.161 | 0.16 | 0.138 | 0.119 | 0.116 | 0.106 | 0.235 | 0.182 | 0.153 | 0.117 | 0.126
15 | NCI-H1993 | 0.337 | 0.539 | 0.319 | 0.338 | 0.446 | 0.643 | 0.703 | 0.58 | 0.614 | 0.53 | 0.664 | 0.662 | 0.638 | 0.511 | 0.533 | 0.67 | 0.57 | 0.555 | 0.505 | 0.489
16 | NCI-H596 | 0.27 | 0.255 | 0.253 | 0.241 | 0.23 | 0.912 | 0.344 | 0.251 | 0.208 | 0.257 | 0.66 | 0.38 | 0.226 | 0.274 | 0.161 | 0.371 | 0.256 | 0.267 | 0.227 | 0.313
